The record followed here is patent US20230109839A1, “THERAPEUTIC AGENT FOR TAUOPATHIES” (SUMITOMO PHARMA CO., LTD., priority 2020, published 2023).

This assay concerns the target T1, human Nav1.1 (Homo sapiens, UniProt P35498).
T1 construct: host or cells: HEK293
Description: Amplification of Nav1.1-derived voltage-gated sodium current (Nav1.1 current), automated patch clamp (Test 1). It is filed as cell-based. Conditions: for activation at 1 µM: HEK293, concentration for evaluation 1 μM, read-out: Nav1.1 current amplification rate (%). The procedure, abridged: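 Compound-induced change in ramp-evoked sodium current peak and AUC was expressed as 100×post/pre ratio minus 100. Recordings used automated patch clamp in voltage-clamp mode on a stable human Nav1.1 HEK293 line, including only cells above 500 pA. Compounds were delivered in extracellular fluid containing 1% DMSO.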
On the technique in general: In patch-clamp work, channel activity is measured electrically.

The mark [1] stands for this setting: Concentration for evaluation 10 μM, HEK293 cell line stably expressing human Nav1.1.
[2] abbreviates: Concentration for evaluation 3 μM, HEK293 cell line stably expressing human Nav1.1.
Where [3] appears, read: Concentration for evaluation 1 μM, HEK293 cell line stably expressing human Nav1.1.
Where [4] appears, read: Concentration for evaluation 50 μM, HEK293 cell line stably expressing human Nav1.1.
Where [5] appears, read: concentration for evaluation 1 μM, HEK293 stably expressing human Nav1.1.
[6] abbreviates: HEK293 stably expressing human Nav1.1.

In the case of `CN1CCN(c2cccc3c2CCN3C(=O)Cn2nc(C3=CCC(C)(C)CC3)ccc2=O)CC1` [Example 433], the “Nav1.1 current amplification rate (%)” value under setting [1] worked out at 192%.

Regarding `CC1CC=C(c2ccc(=O)n(CC(=O)N3CCc4c(C5CN(C)C5)cccc43)n2)CC1` (stereo not shown) [Example 300], the “Nav1.1 current amplification rate (%)” value under setting [2] is 140%.

`CN(CC1(F)CC1)c1cnc2cnn(CC(=O)Nc3ccn4ncnc4c3)c2n1` [Example 640]: under setting [3], the “Nav1.1 current amplification rate (%)” value is on record as 38%.

For the compound `CC(C)CCOc1ncc2cnn(CC(=O)Nc3ccn4ncnc4c3)c2n1` [Example 780], the “Nav1.1 current amplification rate (%)” value under setting [3] is listed as 10%.

Take `Cc1cncc(N2CCN(C(=O)Cn3nc(C4=CCC(C)(C)CC4)ccc3=O)CC2)c1` [Example 442]: the “Nav1.1 current amplification rate (%)” value under setting [1] amounted to 414%.

Consider `CC1(C)CC=C(c2ccc(=O)n(CC(=O)Nc3ccn4ccnc4c3)n2)C1` [Example 465], for which the “Nav1.1 current amplification rate (%)” value under setting [1] is on record as 186%.

On to `N#Cc1ccc(NC(=O)Cn2nc(N3CCC4(CCCO4)CC3)ccc2=O)cc1` [Example 29], for which the “Nav1.1 current amplification rate (%)” value under setting [1] was 20%.

On to `CC1CC=C(c2ccc(=O)n(CC(=O)N3CCc4c(-c5cc[nH]n5)ccnc43)n2)CC1` (stereo not shown) [Example 291], for which the “Nav1.1 current amplification rate (%)” value under setting [4] amounted to 212%.

For the compound `CC1CC=C(c2ccc(=O)n(CC(=O)N3CC=C(c4ccncc4)C3)n2)CC1` (stereo not shown) [Example 387], under setting [3], the “Nav1.1 current amplification rate (%)” value worked out at 19%.

On to `CC1CC=C(c2ccc(=O)n(CC(=O)N3CCN(Cc4ccncc4)CC3)n2)CC1` (stereo not shown) [Example 392], for which, under setting [1], the “Nav1.1 current amplification rate (%)” value turned out to be 53%.

`O=C(Cn1ncc2ccc(C3=CCC(F)(F)CC3)nc21)Nc1ccn2ncnc2c1` [Example 860]: under setting [5], the “Nav1.1 current amplification rate (%)” value turned out to be 50%.

With `COCC1(N(C)c2cnc3cnn(CC(=O)Nc4ccn5ncnc5c4)c3n2)CC1` [Example 629], the “Nav1.1 current amplification rate (%)” value under setting [2] came to 15%.

As to `CC1CC=C(c2ccc(=O)n(CC(=O)N3CC=C(c4ccccn4)C3)n2)CC1` (stereo not shown) [Example 385], under setting [4], the “Nav1.1 current amplification rate (%)” value was 42%.

Take `CC1CC=C(c2ccc(=O)n(CC(=O)Nc3cncc(C4=COCCC4)c3)n2)CC1` (stereo not shown) [Example 382]: the “Nav1.1 current amplification rate (%)” value under setting [3] came out at 13%.

In the case of `O=C(Cn1nc(C2=CCC(F)(F)CC2)ccc1=O)Nc1ccn2ccnc2c1` [Example 464], the “Nav1.1 current amplification rate (%)” value under setting [1] was 18%.

On to `CC1CC=C(c2ccc(=O)n(CC(=O)N3CCc4c3ccnc4Cl)n2)CC1` (stereo not shown) [Example 247], for which, under setting [1], the “Nav1.1 current amplification rate (%)” value is on record as 53%.

As for `CN(c1ncc2cnn(CC(=O)Nc3ccc(C#N)nc3)c2n1)C1CC2(CC2)C1` [Example 845], the activation at 1 µM under setting [6] turned out to be 76%.

In the case of `CN(c1cnc2cnn(CC(=O)Nc3ccn4ccnc4c3)c2n1)C1CC1` [Example 702], the “Nav1.1 current amplification rate (%)” value under setting [3] is recorded as 60%.

With `CN(c1cnc2cnn(CC(=O)Nc3cnc4cccnc4c3)c2n1)C1CC1` [Example 713], the “Nav1.1 current amplification rate (%)” value under setting [3] is 112%.

As to `CC1C=C(c2ccc(=O)n(CC(=O)Nc3ccc(C#N)cc3)n2)CC(C)O1` (stereo not shown) [Example 49], the “Nav1.1 current amplification rate (%)” value under setting [1] is 2%.

`CN(c1ncc2cnn(CC(=O)Nc3ccn4ncnc4c3)c2n1)C1CC(C)(C)C1` [Example 632]: the “Nav1.1 current amplification rate (%)” value under setting [3] worked out at 164%.

On to `CC1CC=C(c2ccc(=O)n(CC(=O)Nc3ccnc(CO)c3)n2)CC1` (stereo not shown) [Example 370], for which, under setting [1], the “Nav1.1 current amplification rate (%)” value stood at 35%.

`O=C(Cn1nc(-c2cc(Cl)cs2)ccc1=O)Nc1ccn2ccnc2c1` [Example 467]: the “Nav1.1 current amplification rate (%)” value under setting [3] was determined as 80%.

`CC1CC=C(c2ccc(=O)n(CC(=O)N3CCc4c(CN5CCCCC5)cccc43)n2)CC1` (stereo not shown) [Example 282]: the “Nav1.1 current amplification rate (%)” value under setting [3] is listed as 26%.

In the case of `CN(c1cnc2cnn(CC(=O)N3CCc4c(-c5ccncc5)cccc43)c2n1)C1CCC1` [Example 689], under setting [3], the “Nav1.1 current amplification rate (%)” value stood at 286%.

Regarding `Cc1ccc(-c2ccc(=O)n(CC(=O)N3CCc4cnccc43)n2)cc1` [Example 159], the “Nav1.1 current amplification rate (%)” value under setting [1] came out at 32%.

Turning to `CN(c1ncc2cnn(CC(=O)Nc3ccc4ncnn4c3)c2n1)C1CCCC1` [Example 814], the “Nav1.1 current amplification rate (%)” value under setting [5] worked out at 87%.

In the case of `CC1CCN(c2ncc3cnn(CC(=O)Nc4ccn5ccnc5c4)c3n2)CC1` [Example 831], under setting [6], the activation at 1 µM turned out to be 128%.

In the case of `CC1CC=C(c2ncc3cnn(CC(=O)NC4=CC5N=COC5C=C4)c3n2)CC1` (stereo not shown) [Example 833], the activation at 1 µM under setting [6] is 283%.

`CC1CC=C(c2ccc(=O)n(CC(=O)Nc3ccc4oc(CN5CCC5)nc4c3)n2)CC1` (stereo not shown) [Example 333]: the “Nav1.1 current amplification rate (%)” value under setting [2] came to 25%.

For the compound `CC1CC=C(c2ccc(=O)n(CC(=O)Nc3cccc(-n4ccnc4)c3)n2)CC1` (stereo not shown) [Example 363], the “Nav1.1 current amplification rate (%)” value under setting [3] was determined as 174%.

On to `CC1CC=C(c2ccc(=O)n(CC(=O)N3CCc4c(-c5cccnc5)cccc43)n2)CC1` (stereo not shown) [Example 248], for which, under setting [2], the “Nav1.1 current amplification rate (%)” value is listed as 392%.

Turning to `O=C(Cn1ncc2cnc(-c3ccc(Cl)s3)nc21)Nc1ccn2ncnc2c1` [Example 774], the “Nav1.1 current amplification rate (%)” value under setting [3] was 50%.

Turning to `CC(C)CN(C)c1ccc2cnn(CC(=O)Nc3ccn4ncnc4c3)c2n1` [Example 861], the “Nav1.1 current amplification rate (%)” value under setting [5] stood at 78%.

On to `CO[C@@H]1CCN(Cc2cccc3c2CCN3C(=O)Cn2nc(C3=CCC(C)CC3)ccc2=O)C1` (stereo partly shown) [Example 273], for which, under setting [3], the “Nav1.1 current amplification rate (%)” value came out at 77%.

`CC1(C)CC=C(c2ccc(=O)n(CC(=O)Nc3ccc(C#N)cc3)n2)CC1` [Example 42]: under setting [1], the “Nav1.1 current amplification rate (%)” value was 216%.

In the case of `CN(c1cnc2cnn(CC(=O)Nc3ccn4ncnc4c3)c2n1)C1CCC(F)(F)C1` (stereo not shown) [Example 628], the “Nav1.1 current amplification rate (%)” value under setting [3] is 14%.

As to `Cc1nc2cc(NC(=O)Cn3nc(C4=CCC(C)CC4)ccc3=O)ccn2c1C` (stereo not shown) [Example 329], the “Nav1.1 current amplification rate (%)” value under setting [2] is reported as 100%.

In the case of `CC1CC=C(c2ccc(=O)n(CC(=O)N3CC=C(c4ccccc4)C3)n2)CC1` (stereo not shown) [Example 388], under setting [1], the “Nav1.1 current amplification rate (%)” value is on record as 37%.

In the case of `O=C(Cn1ncc2cnc(N3CCC(F)(F)CC3)nc21)Nc1ccn2ncnc2c1` [Example 768], the “Nav1.1 current amplification rate (%)” value under setting [3] was 18%.

Regarding `CN(c1cnc2cnn(CC(=O)Nc3ccc4oc(C(F)F)nc4c3)c2n1)C1CCCC1` [Example 678], the “Nav1.1 current amplification rate (%)” value under setting [3] was found to be 132%.

`CC1CC=C(c2ccc(=O)n(CC(=O)N3CCN(c4cnn(C)c4)CC3)n2)CC1` (stereo not shown) [Example 415]: the “Nav1.1 current amplification rate (%)” value under setting [1] is reported as 93%.

As to `CN(CC1(C)CC1)c1ncc2cnn(CC(=O)Nc3ccc4ncnn4c3)c2n1` [Example 822], the “Nav1.1 current amplification rate (%)” value under setting [5] came to 42%.

`CC1CC=C(c2ccc3cnn(CC(=O)N4CCc5c(N6CCOCC6)cccc54)c3n2)CC1` (stereo not shown) [Example 882]: the activation at 1 µM under setting [6] was 88%.

As for `CC1CC=C(c2ccc(=O)n(CC(=O)N3CCc4c(-c5cc[nH]n5)ccc(F)c43)n2)CC1` (stereo not shown) [Example 292], the “Nav1.1 current amplification rate (%)” value under setting [3] was determined as 46%.

On to `O=C(Cn1ncc2cnc(C3=CCC(F)(F)CC3)nc21)Nc1ccc2cncnc2c1` [Example 810], for which the “Nav1.1 current amplification rate (%)” value under setting [5] is recorded as 86%.

In the case of `CC1CC=C(c2ccc(=O)n(CC(=O)N3CCc4c(C5CN(CCO)C5)cccc43)n2)CC1` (stereo not shown) [Example 303], the “Nav1.1 current amplification rate (%)” value under setting [2] was determined as 67%.

For `Cc1cc(C2=CCC(C)(C)CC2)nn(CC(=O)Nc2ccn3ccnc3c2)c1=O` [Example 460], the “Nav1.1 current amplification rate (%)” value under setting [1] worked out at 221%.

As to `CN(c1ncc2cnn(CC(=O)Nc3ccn4ncnc4c3)c2n1)C1CCC1` [Example 797], the “Nav1.1 current amplification rate (%)” value under setting [5] is listed as 66%.
